The text below walks through data of US5792745A, “Use of peptides for altering bone resorption” (La Jolla Cancer Research Center, priority 1995, dated 1998).

Entries after “also recorded” stand apart in the source; their conditions may differ. Where a SMILES comes first, the peptide text is derived from it. Bridges are numbered along the chain shown (N, C = ends). [ ]: non-standard residue; d: D form. Tic = O=C(O)[C@@H]1Cc2ccccc2CN1; Mpa = O=C(O)CCS

The subject of experiment [1] is parathyroid hormone-induced hypercalcemia. The experiment in a line: parathyroid hormone-induced hypercalcemia in mice. Particulars: parathyroidectomized mice, 4 hr peptide infusion, FIG. 9. The class given is in vivo.
The next experiment concerns the target T1, α5 β1 (FnR) (Homo sapiens, UniProt P05556+P08648).
T1 construct: Fibronectin receptor (FnR) was purified from 100 mM octyl-glucopyranoside-extracted human placenta; from tissue
The experiment in a line: α5 β1 ELISA (competitive). Particulars: comparison of ELISA values. The class given is binding. As for the experimental part:
Peptide binding to purified human αv β5 and αv β3, which are VnR's, and to α5 β1, which is a FnR, was determined using competitive ELISA assays as described below. If desired, an αIIb β3 ELISA can be performed as described in W091/15515.
Peptide binding to purified human α5 β1 (FnR) also was determined using a competitive ELISA. In these assays, Fn was immobilized to the wells and the binding of solubilized FnR in the presence of various concentrations of a peptide analogue was determined using a mouse monoclonal antibody to human β1 (clone P4C10; Gibco) and specific binding was visualized using a second antibody.
Microtiter wells were coated at RT by adding 100 μl of 2 μg/ml human Fn in TBS and incubating the plates overnight at 4° C. Following incubation, the plates were washed 3× with TBS/"TWEEN 20" (polyoxyethylenesorbitan monolaurate). RGD peptides were diluted in TBS containing 20 mM OG and 2 mM MnCl2 and 50 μl was added to wells at 10-fold serial dilutions. FnR was diluted in the same buffer and 50 μl was added to each well.
The plates were incubated for 3 hr at RT and washed with 300 μl TBS/"TWEEN 20" (polyoxyethylenesorbitan monolaurate). Bound receptor was incubated with 100 μl of the monoclonal anti-β1 antibody for 2 hr, then washed 3× with TBS/"TWEEN 20" (polyoxyethylenesorbitan monolaurate). […] The amount of bound second antibody was determined as described above. […]
On the technique in general: An ELISA detects its analyte on a solid surface through an enzyme-linked reagent.

The next experiment concerns neointimal hyperplasia. Conditions: rabbit, in vivo; cited from earlier work.
In experiment [2] the test system is integrin receptors / osteoclasts. Kind of experiment: series of assays of Examples II and III for potency and selectivity (summary). Conditions: for activity of minimal-element peptides (in words): FIG. 2. From the text: Peptides of the RGDNTic (SEQ ID NO: 31) pharmacophore group are characterized, in general, as having increased potency, whereas the peptides of the pharmacophore RGDDV (SEQ ID NO: 1) group generally have higher receptor selectivity. […] As used herein, the term "potency" or "potent" means that a peptide of the invention is active at a relatively low concentration in the assays described in Examples II and III. A potent peptide of the invention can be identified, for example, using the assays described in Examples II and III.
The present invention also provides a series of in vitro and in vivo assays useful for screening a panel of peptides in order to identify peptides that can reduce or inhibit bone resorption or that can alter integrin binding such as αv β3 integrin receptor-mediated binding. Such peptides can include, for example, peptides within the pharmacophore groups exemplified herein or peptides within other pharmacophore groups. The series of assays disclosed herein is particularly useful for determining the selectivity and potency of a peptide for reducing or inhibiting bone resorption. The selectivity of a peptide for an integrin receptor involved in osteoclast binding to bone can be determined, for example, using the integrin receptor assays and cell attachment and detachment assays described herein. Use of cell-based assays in conjunction with receptor-based assays is informative because the receptor ELISAs provide useful information regarding the binding characteristics of a particular peptide toward a particular integrin and because the cell-based assays confirm that those characteristics are relevant to the αv β3 receptor or to bone resorption.

A further experiment has as its system chick osteoclasts. Kind of experiment: chick cell detachment assay (osteoclasts vs total cells). Format: cell-based. Particulars: FIG. 5.
For the next experiment, the system named is rat osteoclasts. Kind of experiment: rat osteoclast attachment assay compared with MG63 / NRK cell attachment. Particulars: FIGS. 7 and 8 compared. Format: cell-based. As for the experimental part: 3. Rat osteoclast attachment assay
To determine the effect of a peptide on the attachment of rat osteoclasts in vitro, 100 μl aliquots of the rat pup bone cell suspension described in Example II.B.2., above, were added in triplicate to 96 well MAXISORP plates coated with specific substrates or with FCS. Substrate coated plates were used to determine the ability of peptides to inhibit attachment or induce detachment of an osteoclast from a ligand such as vitronectin, fibronectin, osteopontin or collagen I (Collaborative Research), which are ligands present in bone. Substrates were added to 96 well plates (50 μl of a 5-10 μg/ml solution in sodium carbonate, pH 9.5) and incubated for 2 hr at 37° C. For FCS control wells, 100 μl 10% FCS was added. Wells were aspirated, then washed 2× with PBS and blocked with 1% bovine serum albumin in PBS for 2 hr at 37° C. Wells were aspirated and washed again 2× with PBS. Cells were seeded in duplicate at 4×10^4 cells/well. […]
Following incubation, the medium and nonadherent cells were removed by aspiration from each well. […] Adherent osteoclasts were counted by light microscopy. […]
MG63 and NRK cell lines were purchased from ATTC (Rockville, Md.). […] Following staining, the stain was extracted with 20% acetic acid and the OD562 of the extracted stain was determined. […]
Selectivity of a peptide can be determined by comparing the results of FIGS. 7 and 8 (see, also FIG. 2).

In a further experiment the target is T2, αv β3 receptor (Homo sapiens, UniProt P05106+P06756).
T2 construct: The αv β3 receptor was purified from octyl-glucopyranoside-extracted human placenta; from tissue
Kind of experiment: αv β3 ELISA (competitive). The class given is binding. Conditions: ELISA / JY cell IC50 values of FIG. 2 compared. On the procedure: Peptide binding to purified αv β3 receptor was determined by using a competitive ELISA, in which αv β3 receptor was immobilized and the binding of solubilized VN, in the presence of various concentrations of peptide analogue, was detected using a monoclonal mouse IgG anti-VN antibody and a labelled anti-mouse IgG conjugate.
50 μl of Vn in the same buffer then was added to each well.
The development process was stopped by adding 50 μl to 4N H2 SO4 to each well. The plates were read at 490 nm and the data analyzed by four parameter fit.

The next experiment has as its system osteoclasts. Particulars: cited from earlier work.
The subject of the next experiment is bone resorption. Conditions: cited from earlier work.

Regarding `CC(C)[C@@H]1NC(=O)[C@H](CC(=O)O)NC(=O)[C@H](CC(=O)O)NC(=O)CNC(=O)[C@H](CCCNC(=N)N)NC(=O)CCSSC[C@@H](C(N)=O)NC1=O` [compound 191] ([Mpa]RGDDVC-NH2; disulfide 1-7), in experiment [1], the “PTH-induced change in serum ionized calcium” value is “decreased the PTH-induced rise in serum ionized calcium in a dose responsive manner”. Turning to `C[C@@H]1NC(=O)[C@H](CCCNC(=N)N)NC(=O)CNC(=O)CC[C@@H](C(N)=O)NC(=O)[C@@H]2CCCN2C(=O)[C@H](CC(N)=O)NC(=O)[C@H](CC(=O)O)NC(=O)CNC(=O)[C@H](CCCNC(=N)N)NC1=O` [compound 390] (GRARGDNPE-NH2; lactam N-9), the “receptor selectivity for α5 β1 versus αv β5” value on α5 β1 (FnR) is given as “more selective toward α5 β1 than toward αv β5”. With G(Pen)GRGDSPCA, in the experiment with neointimal hyperplasia, the “inhibition of neointimal hyperplasia (literature)” value is given as “can inhibit neointimal hyperplasia”. Take `CC(=O)N[C@H]1CSSC[C@@H](C(N)=O)NC(=O)[C@@H]2Cc3ccccc3CN2C(=O)[C@H](CO)NC(=O)[C@H](CC(=O)O)NC(=O)CNC(=O)[C@H](CCCNC(=N)N)NC1=O` [compound 812, Ac-CRGDS(Tic)C-NH2] (Ac-CRGDS[Tic]C-NH2; disulfide 1-7): the “activity of minimal-element peptides (in words)” value in [2] was “demonstrate activity”.

Take `N=C(N)NCCC[C@@H]1NC(=O)CC[C@@H](C(N)=O)NC(=O)[C@@H]2CCCN2C(=O)[C@H](CO)NC(=O)[C@H](CC(=O)O)NC(=O)CNC1=O` [compound 825] (RGDSPE-NH2; lactam N-6): the “receptor selectivity for α5 β1 versus αv β5” value on α5 β1 (FnR) is recorded as “more selective toward α5 β1 than toward αv β5”.

For the compound `CC(C)[C@@H]1NC(=O)[C@H](CC(=O)O)NC(=O)[C@H](CC(=O)O)NC(=O)CNC(=O)[C@H](CCCNC(=N)N)NC(=O)CC[C@@H](C(N)=O)NC1=O` [peptide 386, RGDDVE-NH2] (RGDDVE-NH2; lactam N-6), the “selective detachment of osteoclasts versus other cell types” value in the experiment with chick osteoclasts is recorded as “caused selective detachment of osteoclasts as compared to other cell types”. In the experiment on rat osteoclasts, the “selectivity: osteoclast attachment versus MG63 or NRK attachment” value is “selective”. For the same compound, in [1], the “PTH-induced change in serum ionized calcium” value is “relatively low level of serum calcium”. In experiment [2], the “activity of minimal-element peptides (in words)” value was “demonstrate activity”. Turning to `CC(C)[C@@H]1NC(=O)[C@H](CC(=O)O)NC(=O)[C@H](CC(=O)O)NC(=O)CNC(=O)[C@H](CCCNC(=N)N)NC(=O)CNC(=O)C[C@@H](C(N)=O)NC1=O` [peptide 368] (GRGDDVD-NH2; lactam N-7), the “receptor selectivity for αv β3 versus αv β5 and α5 β1 (comparison of IC50 values)” value at αv β3 receptor is “receptor selective for αv β3; also recorded: selective peptide”. Besides, in experiment [2], the “both potent and selective (summary classification)” value is “both potent and selective”; the “receptor selectivity (summary classification)” value is “particularly receptor selective”. As to Echistatin, the “binding to osteoclasts (literature)” value in the experiment on osteoclasts is recorded as “binds to osteoclasts in a nonselective manner”. For the same compound, the “inhibition of bone resorption in vitro (literature)” value with osteoclasts (in vitro) was “inhibits bone resorption in vitro”. The “inhibition of bone resorption in vivo (literature)” value with bone resorption is recorded as “inhibits bone resorption”.
